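Five compound concentrations were applied to cells in 96-well plates for 48 hours; endpoints were derived by simple linear interpolation of the resulting dose-response curve. TGI is the concentration that stops growth completely.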
Columns and labels:
Experiment in all cases: NCI tumour cell line growth inhibition, 48 h
[1] = system: UACC-62 melanoma
[2] = system: HL-60(TB) leukemia
[3] = system: SR leukemia
[4] = system: SK-MEL-28 melanoma
[5] = system: K-562 leukemia
[6] = system: MCF7 breast
[7] = system: SNB-19 CNS
[8] = system: LOX IMVI melanoma
[9] = system: CAKI-1 renal
[10] = system: MOLT-4 leukemia
[11] = system: BT-549 breast
[12] = system: DU-145 prostate
[13] = system: OVCAR-4 ovarian
[14] = system: U251 CNS
[15] = system: UACC-257 melanoma
[16] = system: SK-MEL-5 melanoma
[17] = system: NCI-H226 lung
[18] = system: HCC-2998 colon
[19] = system: NCI-H460 lung
[20] = system: SF-268 CNS
[21] = system: EKVX NSCLC
[22] = system: 786-0 renal
[23] = system: SW-620 colon
[24] = system: MDA-N
[25] = system: HOP-92 NSCLC
[26] = system: SN12C renal
[27] = system: SF-539 CNS
[28] = system: OVCAR-5 ovarian
[29] = system: NCI-H522 lung
[30] = system: SF-295 CNS
[31] = system: M14 melanoma
[32] = system: SK-MEL-2 melanoma
[33] = system: T-47D breast
[34] = system: ACHN renal
[35] = system: HS 578T breast
[36] = system: TK-10 renal
[37] = system: HT29 colon
[38] = system: PC-3 prostate
[39] = system: MDA-MB-435
[40] = system: HCT-15 colon
[41] = system: HCT-116 colon
[42] = system: OVCAR-3 ovarian
[43] = system: UO-31 renal
[44] = system: KM12 colon
[45] = system: RPMI-8226 leukemia
[46] = system: MDA-MB-231 breast
[47] = system: COLO 205 colon
[48] = system: NCI/ADR-RES ovarian
[49] = system: SK-OV-3 ovarian
[50] = system: IGROV1 ovarian
[51] = system: A549 NSCLC
[52] = system: OVCAR-8 ovarian
[53] = system: NCI-H23 lung
[54] = system: RXF 393 renal
[55] = system: HOP-62 NSCLC
[56] = system: SNB-75 CNS
[57] = system: CCRF-CEM leukemia

Work on `Cc1ccc(/N=N/C(=NNC(=O)c2ccc(C)cc2)c2ccc(N(C)C)cc2)cc1` yielded a TGI [1] of 23.4 µM, a TGI [2] of 72.1 µM and a TGI [3] of 45.1 µM. For the same compound, the TGI [4] was > 100 µM, the TGI [5] was > 100 µM and the TGI [6] was 46.2 µM. For the same compound, the TGI [7] was 58.7 µM, the TGI [8] was > 100 µM and the TGI [9] was 48.8 µM. The TGI [10] was > 100 µM, the TGI [11] was 62.4 µM and the TGI [12] was 73.9 µM. The TGI [13] was 54 µM, the TGI [14] was > 100 µM and the TGI [15] was 60 µM. For the same compound, the TGI [16] was 30.7 µM, the TGI [17] was 68.4 µM and the TGI [18] was 73.2 µM. For the same compound, the TGI [19] was 80.3 µM, the TGI [20] was > 100 µM and the TGI [21] was > 100 µM. For the same compound, the TGI [22] was > 100 µM, the TGI [23] was > 100 µM and the TGI [24] was 46.1 µM. The TGI [25] was 80.2 µM, the TGI [26] was 68.5 µM and the TGI [27] was > 100 µM. The TGI [28] was > 100 µM, the TGI [29] was 49.9 µM and the TGI [30] was 76.1 µM. For the same compound, the TGI [31] was 60.4 µM, the TGI [32] was > 100 µM and the TGI [33] was > 100 µM. For the same compound, the TGI [34] was 92.4 µM, the TGI [35] was > 100 µM and the TGI [36] was > 100 µM. The TGI [37] was 91.3 µM, the TGI [38] was > 100 µM and the TGI [39] was 39.5 µM. The TGI [40] was 91.2 µM, the TGI [41] was 68.2 µM and the TGI [42] was 54.2 µM. It also gave a TGI [43] of 68 µM, a TGI [44] of 37 µM and a TGI [45] of 70.5 µM. The TGI [46] was > 100 µM, the TGI [47] was 31.1 µM and the TGI [48] was > 100 µM. The TGI [49] was 76.2 µM, the TGI [50] was > 100 µM and the TGI [51] was 87.9 µM. The TGI [52] was > 100 µM and the TGI [53] was 69.3 µM.
For `C/C(N)=N/OCc1nc(C)no1`, the TGI [1] was > 100 µM, the TGI [2] was > 100 µM and the TGI [3] was > 100 µM. For the same compound, the TGI [4] was > 100 µM, the TGI [5] was > 100 µM and the TGI [6] was > 100 µM. For the same compound, the TGI [7] was > 100 µM, the TGI [9] was > 100 µM and the TGI [10] was > 100 µM. The TGI [11] was > 100 µM, the TGI [12] was > 100 µM and the TGI [13] was > 100 µM. For the same compound, the TGI [14] was > 100 µM, the TGI [15] was > 100 µM and the TGI [16] was > 100 µM. For the same compound, the TGI [18] was > 100 µM, the TGI [54] was > 100 µM and the TGI [19] was > 100 µM. For the same compound, the TGI [20] was > 100 µM, the TGI [21] was > 100 µM and the TGI [22] was > 100 µM. For the same compound, the TGI [23] was > 100 µM, the TGI [24] was > 100 µM and the TGI [26] was > 100 µM. The TGI [27] was > 100 µM, the TGI [55] was > 100 µM and the TGI [29] was > 100 µM. The TGI [30] was > 100 µM, the TGI [31] was > 100 µM and the TGI [33] was > 100 µM. For the same compound, the TGI [34] was > 100 µM, the TGI [35] was > 100 µM and the TGI [36] was > 100 µM. For the same compound, the TGI [37] was > 100 µM, the TGI [38] was > 100 µM and the TGI [39] was > 100 µM. The TGI [56] was > 100 µM, the TGI [40] was > 100 µM and the TGI [41] was > 100 µM. For the same compound, the TGI [42] was > 100 µM, the TGI [43] was > 100 µM and the TGI [44] was > 100 µM. The TGI [45] was > 100 µM, the TGI [46] was > 100 µM and the TGI [47] was > 100 µM. For the same compound, the TGI [48] was > 100 µM, the TGI [49] was > 100 µM and the TGI [51] was > 100 µM. For the same compound, the TGI [57] was > 100 µM, the TGI [52] was > 100 µM and the TGI [53] was > 100 µM.

— PubChem BioAssay (NCI)
